Counter-ions that a name gives are not always drawn.

For orientation: melting point means the temperature of the solid-liquid transition.

In turn, `N#CCc1ccc(-c2nc3ccccc3o2)cc1-c1cccc(C#N)c1` [Example 4, 5′-(1,3-Benzoxazol-2-yl)-2′-(cyanomethyl)-1,1′-biphenyl-3-carbonitrile] yielded a melting point of 175 to 176 °C.

Consider `COc1cc(-c2nc3ccccc3o2)ccc1-c1ccccn1` (as salt: hydrochloride) [Example 54, 2-(3-Methoxy-4-pyridin-2-ylphenyl)-1,3-benzoxazole hydrochloride salt], for which the melting point came to 215 °C.

`N#CCc1ccc(-c2nc3ccccc3o2)cc1N` [Example 7, [2-Amino-4-(1,3-benzoxazol-2-yl)phenyl]acetonitrile] came in with a melting point of 198 to 199 °C.

Consider `N#CCc1ccc(-c2nc3ccccc3o2)cc1[N+](=O)[O-]` [Example 6, [4-(1,3-Benzoxazol-2-yl)-2-nitrophenyl]acetonitrile], for which the melting point is 203 °C.

Turning to `N#CCc1ccc(-c2nc3ccccc3o2)cc1Br` [Example 1, [4-(1,3-Benzoxazol-2-yl)-2-bromnophenyl]acetonitrile], the melting point is 190 to 191 °C.

These data come from US20050065340A1, “Metabotropic glutamate receptor-5 modulators” (priority 2001, published 2005).
